{"source": "patent US20230008571A1", "about": "“CYCLIC COMPOUNDS FOR TREATING CARDIOVASCULAR DISORDERS AND WOUNDS” (University of South Florida, priority 2021, published 2023)", "target": "T1, EGFR (Homo sapiens, UniProt P00533)", "T1 construct": "A549 cells were chosen due to their elevated expression of EGFR; endogenous in cells; host or cells: A549", "T1 sequence (P00533 25-1210)": "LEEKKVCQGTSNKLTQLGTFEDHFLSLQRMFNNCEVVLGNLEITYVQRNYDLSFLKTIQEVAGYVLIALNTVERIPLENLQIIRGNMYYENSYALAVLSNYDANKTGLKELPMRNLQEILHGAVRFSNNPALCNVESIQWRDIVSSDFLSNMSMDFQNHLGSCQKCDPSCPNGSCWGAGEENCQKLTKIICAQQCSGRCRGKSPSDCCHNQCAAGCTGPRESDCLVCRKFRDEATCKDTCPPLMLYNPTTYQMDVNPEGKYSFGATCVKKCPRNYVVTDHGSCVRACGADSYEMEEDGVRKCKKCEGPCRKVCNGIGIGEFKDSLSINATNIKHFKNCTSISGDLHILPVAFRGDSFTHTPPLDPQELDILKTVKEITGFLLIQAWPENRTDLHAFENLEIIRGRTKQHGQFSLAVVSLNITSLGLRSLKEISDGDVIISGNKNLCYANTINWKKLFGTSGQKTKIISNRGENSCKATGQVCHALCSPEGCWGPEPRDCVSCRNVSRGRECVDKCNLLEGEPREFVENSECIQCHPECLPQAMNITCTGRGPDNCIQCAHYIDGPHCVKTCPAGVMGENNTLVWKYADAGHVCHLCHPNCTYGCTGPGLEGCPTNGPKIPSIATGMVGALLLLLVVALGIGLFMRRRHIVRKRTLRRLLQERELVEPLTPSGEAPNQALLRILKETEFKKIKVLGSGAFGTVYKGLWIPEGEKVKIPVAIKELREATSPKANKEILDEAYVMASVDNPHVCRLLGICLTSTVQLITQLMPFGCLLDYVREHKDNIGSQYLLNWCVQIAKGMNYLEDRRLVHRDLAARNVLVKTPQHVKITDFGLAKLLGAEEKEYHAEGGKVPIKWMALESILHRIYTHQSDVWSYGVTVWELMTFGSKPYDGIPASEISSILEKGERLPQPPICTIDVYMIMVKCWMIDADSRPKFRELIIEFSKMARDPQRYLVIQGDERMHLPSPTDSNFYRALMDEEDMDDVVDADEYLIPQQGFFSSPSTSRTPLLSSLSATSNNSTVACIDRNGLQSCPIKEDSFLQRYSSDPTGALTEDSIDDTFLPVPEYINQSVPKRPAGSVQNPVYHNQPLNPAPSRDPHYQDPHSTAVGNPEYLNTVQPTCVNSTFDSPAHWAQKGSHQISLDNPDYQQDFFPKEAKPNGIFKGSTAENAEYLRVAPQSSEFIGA", "assay": "Western blot of EGF-induced EGFR phosphorylation in A549 cells", "format": "cell-based", "protocol": "A549 cells were chosen due to their elevated expression of EGFR.\nA549 cells were seeded into a 6-well plate at a concentration of 1×10^5 cells/well. After 12 h attachment at 37° C. and 5% CO2, the cells were starved overnight in serum-reduced DMEM followed by treatment with different concentration of M-2-2 for 4 h. […] Subsequently, the cells were incubated on ice for 10 min and centrifuged at 14,000×g at 4° C. for 10 min. […] The experiments were conducted in triplicates and repeated for three times."}
{"smiles": "CC[C@H]1CN(C(=O)CCC2CCCCC2)CC(=O)N[C@@H](CC)CN(C(=O)Cc2ccc3c(c2)OCO3)CC(=O)N[C@@H](CC(C)C)CN(CC(N)=O)C(=O)CCSCc2ccc(cc2)C(=O)N[C@@H](CC(C)C)CN(C(=O)Cc2ccc3c(c2)OCO3)CC(=O)N1", "note": "[M-2-2]", "values": [{"measurement": "effect on phosphorylation level of EGFR (P-EGFR) in the presence of EGF", "setting": "starved A549 cells, 20 μM, 4 h pretreatment, then 100 ng/mL EGF, western blot, P-EGFR/GAPDH", "value": "enhance the activation of EGFR"}, {"measurement": "effect on downstream signal transduction of EGF stimulated EGFR", "setting": "western blot with anti-phosphorylated AKT and ERK, concentration not given", "value": "enhance"}]}
